Experiments:
[1] = system: LOPD population (ERT-naïve and ERT-experienced); assay: Indirect treatment comparison, multi-level network meta regression (ML-NMR); design: species or system human; details: base-case scenario, sensitivity analysis (RCT data only, FIGS. 66, 67)
Experimental: Moreover, a comparison of three randomized clinical trials (LOTS: alglucosidase alfa vs placebo; COMET: avalglucosidase alfa vs alglucosidase alfa; and PROPEL: cipaglucosidase alfa/miglustat vs alglucosidase alfa) share 6MWD and % predicted FVC as key primary or secondary endpoints. Using patient-level data from the PROPEL randomized clinical trial (RCT) plus aggregate published data from other RCTs, Phase I/II and open label extension trials, a multi-level network meta-regression was conducted, adjusting for various baseline covariates including previous ERT duration. The base case scenario had covariates resembling the PROPEL population (naïve and ERT-experienced) and analyzed 6MWD and FVC change from baseline at 52 weeks. […]
A systematic literature review (SLR) was conducted to identify relevant published clinical studies of ERTs in LOPD. Outcomes assessed were change from baseline in 6-minute walking distance (6MWD) (m) and in forced vital capacity (FVC; % predicted) at week 52, acknowledged by clinicians, HTA agencies and payers as key LOPD trial endpoints. […]
A base-case scenario was evaluated in which all covariates were set to the target population of the PROPEL trial. […]

[2] = system: LAMP1, LC3, dysferlin in muscle fibers; assay: Biomarker changes (LAMP1, LC3, dysferlin) in muscle of Gaa KO mice; assay type: in vivo
Experimental: The therapeutic effects of ATB200 and miglustat were evaluated and compared against those of Alglucosidase alfa in Gaa KO mice. For the study, male Gaa KO (3- to 4-month old) and age-matched wild-type (WT) mice were used. Alglucosidase alfa was administered via bolus tail vein intravenous (IV) injection. In the co-administration regimen, miglustat was administered via oral gavage (PO) 30 minutes prior to the IV injection of ATB200. Treatment was given biweekly. Treated mice were sacrificed after 14 days from the last administration and various tissues were collected for further analysis. Table 11 summarizes the study design:
Tissue samples were also analyzed for biomarker changes following the methods discussed in: Khanna R, et al. (2012), “The pharmacological chaperone [i.e., enzyme stabilizer] […]
Similarly, intense LC3-positive aggregates in the muscle fibers of untreated Gaa KO mice signify the presence of autophagic zones and autophagy build-up. […] A similar observation was made when the expression of LC3 was assessed using western blot. […]
Dysferlin, a protein involved in membrane repair and whose deficiency/mistrafficking is associated with a number of muscular dystrophies, was also assessed.

[3] = system: single fibers isolated from the white gastrocnemius of Gaa KO mice; assay: Single fiber analysis (LAMP1/LC3 co-immunofluorescence); assay type: in vivo
Excerpt: FIG. 17 depicts co-immunofluorescent staining of LAMP1 (green) (see for example, “B”) and LC3 (red) (see, for example, “A”) in single fibers isolated from the white gastrocnemius of Gaa KO mice treated with a vehicle, alglucosidase alfa, or ATB200. “C” depicts clearance of autophagic debris and absence of enlarged lysosome. A minimum of 30 fibers were examined from each animal.
As a result, a significant portion of muscle fibers analyzed (36-60%) from ATB200-treated mice appeared normal or near-normal.

[4] = system: adult subjects with late-onset Pompe disease (LOPD); assay: ATB200-03 (PROPEL) phase 3 trial, efficacy; assay type: in vivo, human; details: for absolute decline in percent-predicted FVC: 52 weeks; for 6MWD Baseline / FVC (% predicted) Baseline: before treatment
Experimental: Efficacy Analyses. The primary efficacy endpoint (i.e., change from baseline to Week 52 in 6MWD) was analyzed using a parametric analysis of covariance (ANCOVA) model to compare between the new treatment and the control. […] However, the baseline 6MWD could not be used in the model twice (both as a continuous and a categorical variable) due to the expected high point biserial correlation between them. Thus, the 6MWD continuous variable remained in the model but the categorical 6MWD was removed.

[5] = system: adult subjects with late-onset Pompe disease (LOPD); assay: ATB200-03 (PROPEL) trial, safety; design: species or system human; details: in vivo
Excerpt: Concomitant medications and nondrug therapies were also be recorded.
Safety Analyses. Safety data was summarized using counts and percentages for categorical data and descriptive statistics (mean, standard deviation, median, minimum, maximum) for continuous data. • Efficacy Results from the ATB200-03 Trial

[6] = system: creatine kinase (CK), urinary hexose tetrasaccharide (Hex4); assay: ATB200-03 (PROPEL) trial, biomarkers; assay type: in vivo, human; details: for mean urinary Glc4 concentration: ERT-experienced patients
Excerpt: Pharmacodynamic endpoints were as follows: • change from baseline to Week 52 in serum CK level • change from baseline to Week 52 in urinary Hex4 level

[7] = system: subjects with Pompe disease; details: LOPD, systematic review (Toscano and Schoser 2013); cited from earlier work
[8] = ERT treatment naive population, listed as Alglucosidase alfa
[9] = overall ERT switch and ERT naïve population

[199-arginine,223-histidine]prepro-α-glucosidase (human) [alglucosidase alfa]
relative effect on 6MWT and FVC [1]: numerically favorable versus placebo
LC3 II levels (western blot), effect on autophagy [2]: modest
Fibers with Autophagy Buildup [3]: >90%
Fibers with Normal or Near-normal Appearance [3]: <10%
6MWD CFBL at Week 52 ([4]; ERT switch population): 0.0 m
FVC (% predicted) CFBL at Week 52 ([4]; ERT switch population): −4.0 (0.9) % predicted
absolute decline in percent-predicted FVC ([4]; ERT switch population): 4.0%
6MWD Baseline ([4]; ERT switch population): 334.6 (114.0) m
FVC (% predicted) Baseline ([4]; ERT switch population): 67.5 (21.0) % predicted
6MWD CFBL at Week 52 ([4]; ERT switch population, listed as Alglucosidase alfa): 0.0 (7.2) m
6MWD CFBL at Week 52 ([4]; ERT treatment naive population): 38 m
FVC (% predicted) CFBL at Week 52 ([4]; ERT treatment naive population): −3.6 % predicted
6MWD Baseline ([4]; ERT treatment naive population): 420.9 (135.7) m
FVC (% predicted) Baseline ([4]; ERT treatment naive population): 79.1 (22.6) % predicted
6MWD CFBL at Week 52 [4, 8]: +38.3 (11.1) m
FVC (% predicted) CFBL at Week 52 [4, 8]: −3.6 (1.8) % predicted
mean change (SD) in MMT score for lower extremities ([4]; baseline to week 52): 0.9 (2.58)
mean change in total GSGC score ([4]; baseline to week 52): 0.77 (1.8)
6MWD CFBL at Week 52 [4, 9]: 7 m
6MWD Baseline [4, 9]: 351.0 (121.3) m
6MWD CFBL at Week 52 ([4]; overall ERT switch and ERT naïve population, listed as Alglucosidase alfa): +7.2 (6.6) m
GSGC compared to alglucosidase alfa ([4]; overall and ERT-experienced populations, week 52): worsening
FVC (% predicted) CFBL at Week 52 ([4]; overall population): −4.0 (0.8) % predicted
absolute decline in percent-predicted FVC ([4]; overall population): 4.0%
FVC (% predicted) Baseline ([4]; overall population): 69.7 (21.5) % predicted
patients who discontinued treatment due to an adverse event [5]: 2.6%
patients with injection associated reactions (IARs) [5]: 26%
mean urinary Glc4 concentration ([6]; Week 52): 9.1 mmol/mol
mean urinary Glc4 concentration ([6]; baseline): 7.2 mmol/mol
mean change of CK ([6]; after 52 weeks): +15.6%
mean change of urine Hex-4 ([6]; combined ERT switch and ERT naïve population, after 52 weeks): +11.0%
subjects without initial improvement during treatment [7]: > 30%

— US20260207717A1, “METHODS FOR TREATING INFANTILE-ONSET POMPE DISEASE IN PEDIATRIC PATIENTS” (Amicus Therapeutics, Inc., priority 2022, published 2026)
